Results reported in publication PMC10590056, “Design and synthesis of cabotegravir derivatives bearing 1,2,3-triazole and evaluation of anti-liver cancer activity” (Frontiers in Pharmacology, 2023).
Values joined by “and” are separate entries in the source; they are usually repeats but may differ in a detail not shown here. Equal values may be shown once.

Experiments:
Type in all cases: cell-based
[1] = test system: HepG2 cells; assay: MTT assay for cell proliferation and cytotoxicity, HepG2; design: key to Inhibitory rate: inhibition rate = 1 - mean A490 sample/mean A490 control (fraction); settings: for IC50: HepG2, 48 h, MTT; for Inhibitory rate / ODtreated/ODcontrol: HepG2, fraction, per experiment; for Inhibition rate (16μM), 48 h, HepG2: preliminary screening, HepG2, 16 μM, mean±SD, unit not given
Description: (§1) HepG2, HeLa, MCF-7, and KYSE-30 cells were grown in a humidified incubator at 37°C with 5% CO2 in DMEM supplemented with 10% fetal bovine serum (FBS), […] streptomycin, and 100 U/mL penicillin.
(§2) When HepG2 cells reached 80% confluence, they were treated with 1 mL of trypsin and resuspended at a density of 10^5 cells/mL. Then, 100 μL of cell suspension was seeded into each well of a 96-well plate and incubated in a humidified atmosphere. The different concentrations of KJ-5 and KJ-12 (0, 1, 2, 4, 8, 16, and 32 μM) were added to each well, and the cells were further incubated for 48 h. Afterward, 20 μL of the MTT solution (5 mg/mL) was added to each well, and incubation was continued for another 4 h. The supernatant was discarded, and 200 μL of the DMSO solution was added to each well. The plate was shaken for 10 min in the dark. The absorbance values were measured at 490 nm using an enzyme-linked detector. The cell inhibition rate (%) was calculated using the following formula: (1-Mean A490 sample/Mean A490 control) × 100%.

[2] = test system: KYSE-30 cells; assay: MTT assay for cell proliferation, KYSE-30; design: key to Inhibitory rate: inhibition rate = 1 - mean A490 sample/mean A490 control (fraction); settings: for Inhibitory rate: KYSE-30, given as fraction; for Inhibition rate (16μM), 48 h, KYSE-30: preliminary screening, KYSE-30, 16 μM, mean±SD, unit not given
Description: as §1, §2

[3] = test system: HeLa cells; assay: MTT assay for cell proliferation, HeLa; design: key to Inhibitory rate: inhibition rate = 1 - mean A490 sample/mean A490 control (fraction); settings: Hela; for Inhibitory rate / ODtreated/ODcontrol: fraction, per experiment; for Inhibition rate (16μM), 48 h, Hela: preliminary screening, mean±SD, unit not given
Description: as §1, §2

[4] = test system: MCF-7 cells; assay: MTT assay for cell proliferation, MCF-7; design: key to Inhibitory rate / Inhibition rate: inhibition rate = 1 - mean A490 sample/mean A490 control (fraction); settings: for Inhibition rate (16μM), 48 h, MCF-7: preliminary screening, MCF-7, 16 μM, mean±SD, unit not given
Description: as §1, §2

[5] = KYSE-30, first of three experiments
[6] = KYSE-30, second of three experiments
[7] = KYSE-30, third of three experiments
[8] = MCF-7, fraction, per experiment
[9] = given as fraction, second of three experiments
[10] = given as fraction, third of three experiments

Row | SMILES | IC50 [1] [µM] | Inhibitory rate [1] | ODtreated/ODcontrol [1] | Inhibition rate (16μM), 48 h, HepG2 [1] | ODtreated/ODcontrol [2, 5] | Inhibitory rate ([2]; first of three experiments) | Inhibitory rate ([2]; second of three experiments) | Inhibitory rate ([2]; third of three experiments) | ODtreated/ODcontrol [2, 6] | Inhibition rate (16μM), 48 h, KYSE-30 [2] | Inhibitory rate [3] | ODtreated/ODcontrol [3] | Inhibition rate (16μM), 48 h, Hela [3] | Inhibitory rate [4, 8] | ODtreated/ODcontrol [4, 8] | Inhibitory rate [4, 9] | Inhibition rate [4, 10] | Inhibition rate (16μM), 48 h, MCF-7 [4] | ODtreated/ODcontrol ([4]; second of three experiments) | ODtreated/ODcontrol ([4]; third of three experiments) | further results
1 | COc1c2n(cc(C(=O)Nc3cccc(-c4cn(-c5ccc(C(F)(F)F)cc5)nn4)c3)c1=O)C[C@H]1OC[C@H](C)N1C2=O [KJ-10] | > 50 | 0.3299 and 0.3414 and 0.3063 | 0.6701 and 0.6586 and 0.6937 | 32.59±1.79 | 0.6507 | 0.3493 | 0.2142 | 0.2217 | 0.7858 | 26.17±7.59 | 0.353 and 0.3445 and 0.3223 | 0.647 and 0.6555 and 0.6777 | 33.99±1.59 | 0.366 | 0.634 | 0.3141 | 0.2908 | 33.36±3.87 | 0.6859 | 0.7092 | ODtreated/ODcontrol [2, 7]: 0.7783
2 | COc1c2n(cc(C(=O)Nc3cccc(-c4cn(-c5cc(C(F)(F)F)ccc5C(F)(F)F)nn4)c3)c1=O)CC1OCC(C)N1C2=O (stereo not shown) [KJ-11] | > 50 | 0.2636 and 0.2471 and 0.2291 | 0.7364 and 0.7529 and 0.7709 | 24.66±1.73 | 0.7351 | 0.2649 | 0.225 | 0.2137 | 0.775 | 23.45±2.69 | 0.2491 and 0.2184 and 0.2018 | 0.7509 and 0.7816 and 0.7982 | 22.31±2.4 | 0.1458 | 0.8542 | 0.193 | 0.2016 | 18.01±3.00 | 0.807 | 0.7984 | ODtreated/ODcontrol [2, 7]: 0.7863
3 | COc1c2n(cc(C(=O)Nc3cccc(-c4cn(-c5ccccc5Br)nn4)c3)c1=O)CC1OCC(C)N1C2=O (stereo not shown) [KJ-13] | > 50 | 0.2436 and 0.2489 and 0.2333 | 0.7564 and 0.7511 and 0.7667 | 24.19±0.79 | 0.7102 | 0.2898 | 0.2542 | 0.2107 | 0.7458 | 25.16±3.96 | 0.1723 and 0.1977 and 0.2047 | 0.8277 and 0.8023 and 0.7953 | 19.16±1.71 | 0.2953 | 0.7047 | 0.2534 | 0.2193 | 25.6±3.81 | 0.7467 | 0.7807 | ODtreated/ODcontrol [2, 7]: 0.7893
4 | COc1c2n(cc(C(=O)Nc3cccc(-c4cn(-c5ccc(F)cc5)nn4)c3)c1=O)CC1OCC(C)N1C2=O (stereo not shown) [KJ-14] | 9.94 ± 0.78 | 0.5683 and 0.5455 and 0.5583 | 0.4317 and 0.4545 and 0.4417 | 55.74±1.15 | 0.5122 | 0.4878 | 0.5323 |  | 0.4677 | 52.98±4.08 | 0.494 and 0.5678 and 0.4688 | 0.506 and 0.4322 and 0.5312 | 51.02±5.15 | 0.4819 | 0.5181 | 0.5123 | 0.5403 | 51.15±2.92 | 0.4877 | 0.4597 | 
5 | COc1c2n(cc(C(=O)Nc3cccc(-c4cn(-c5ccccc5I)nn4)c3)c1=O)CC1OCC(C)N1C2=O (stereo not shown) [KJ-15] | 41.8 ± 1.22 | 0.3617 and 0.3472 and 0.3578 | 0.6383 and 0.6528 and 0.6422 | 35.56±0.75 | 0.5987 | 0.4013 | 0.4302 | 0.3963 | 0.5698 | 40.93±1.83 | 0.2424 and 0.3317 and 0.2684 | 0.7576 and 0.6683 and 0.7316 | 28.08±4.59 | 0.3627 | 0.6373 | 0.3633 | 0.3314 | 35.25±1.83 | 0.6367 | 0.6686 | ODtreated/ODcontrol [2, 7]: 0.6037
6 | COc1c2n(cc(C(=O)Nc3cccc(-c4cn(-c5ccccc5)nn4)c3)c1=O)CC1OCC(C)N1C2=O (stereo not shown) [KJ-16] | 28.82 ± 0.1 | 0.4156 and 0.4284 and 0.3769 | 0.5844 and 0.5716 and 0.6231 | 40.70±2.68 | 0.634 | 0.366 | 0.4151 | 0.4118 | 0.5849 | 39.76±2.74 | 0.3434 and 0.3651 and 0.3539 | 0.6566 and 0.6349 and 0.6461 | 35.41±1.09 | 0.4071 | 0.5929 | 0.3917 | 0.4369 | 41.19±2.3 | 0.6083 | 0.5631 | ODtreated/ODcontrol [2, 7]: 0.5882
7 | COc1c2n(cc(C(=O)Nc3cccc(-c4cn(-c5cccc(Cl)c5)nn4)c3)c1=O)CC1OCC(C)N1C2=O (stereo not shown) [KJ-17] | 9.83 ± 0.85 | 0.6231 and 0.6364 and 0.626 | 0.3769 and 0.3636 and 0.374 | 62.85±0.70 | 0.4828 | 0.5172 | 0.6074 | 0.5319 | 0.3926 | 55.22±4.84 | 0.5384 and 0.6161 and 0.6258 | 0.4616 and 0.3839 and 0.3742 | 59.34±4.79 | 0.5766 | 0.4234 | 0.4958 | 0.6004 | 55.76±5.48 | 0.5042 | 0.3996 | ODtreated/ODcontrol [2, 7]: 0.4681
8 | COc1c2n(cc(C(=O)Nc3cccc(-c4cn(-c5cccc(Br)c5)nn4)c3)c1=O)CC1OCC(C)N1C2=O (stereo not shown) [KJ-18] | 6.57 ± 1.45 | 0.7113 and 0.6793 and 0.7366 | 0.2887 and 0.3207 and 0.2634 | 70.90±2.87 | 0.385 | 0.615 | 0.5247 | 0.5847 | 0.4753 | 57.48±4.60 | 0.6347 and 0.6562 and 0.6485 | 0.3653 and 0.3438 and 0.3515 | 64.65±1.09 | 0.5861 | 0.4139 | 0.5487 | 0.6055 | 58.01±2.89 | 0.4513 | 0.3945 | ODtreated/ODcontrol [2, 7]: 0.4153
9 | COc1c2n(cc(C(=O)Nc3cccc(-c4cn(-c5ccccc5Cl)nn4)c3)c1=O)CC1OCC(C)N1C2=O (stereo not shown) [KJ-19] | 7.5 ± 1.19 | 0.7209 and 0.735 and 0.7422 | 0.2791 and 0.265 and 0.2578 | 73.27±1.09 | 0.43 | 0.57 | 0.5211 | 0.5717 | 0.4789 | 55.43±2.87 | 0.6257 and 0.6335 and 0.6346 | 0.3743 and 0.3665 and 0.3654 | 63.13±0.49 | 0.5839 | 0.4161 | 0.531 | 0.6163 | 57.71±4.31 | 0.469 | 0.3837 | ODtreated/ODcontrol [2, 7]: 0.4283
